Experimental data as given in patent US6548543B1, “Remedies or preventives containing cyclopentenone compounds as the active ingredient” (Takara Shuzo Co., Ltd., priority 1998, dated 2003).

Tests used:
topoisomerase I = biological target: T1, topoisomerase I (Homo sapiens, UniProt P11387); assay: Topoisomerase I inhibition, pBR322 DNA relaxation; format: biochemical; conditions: 37° C., 30 minutes
T1 construct: purchased TopoGEN
T1 sequence (P11387 1-765): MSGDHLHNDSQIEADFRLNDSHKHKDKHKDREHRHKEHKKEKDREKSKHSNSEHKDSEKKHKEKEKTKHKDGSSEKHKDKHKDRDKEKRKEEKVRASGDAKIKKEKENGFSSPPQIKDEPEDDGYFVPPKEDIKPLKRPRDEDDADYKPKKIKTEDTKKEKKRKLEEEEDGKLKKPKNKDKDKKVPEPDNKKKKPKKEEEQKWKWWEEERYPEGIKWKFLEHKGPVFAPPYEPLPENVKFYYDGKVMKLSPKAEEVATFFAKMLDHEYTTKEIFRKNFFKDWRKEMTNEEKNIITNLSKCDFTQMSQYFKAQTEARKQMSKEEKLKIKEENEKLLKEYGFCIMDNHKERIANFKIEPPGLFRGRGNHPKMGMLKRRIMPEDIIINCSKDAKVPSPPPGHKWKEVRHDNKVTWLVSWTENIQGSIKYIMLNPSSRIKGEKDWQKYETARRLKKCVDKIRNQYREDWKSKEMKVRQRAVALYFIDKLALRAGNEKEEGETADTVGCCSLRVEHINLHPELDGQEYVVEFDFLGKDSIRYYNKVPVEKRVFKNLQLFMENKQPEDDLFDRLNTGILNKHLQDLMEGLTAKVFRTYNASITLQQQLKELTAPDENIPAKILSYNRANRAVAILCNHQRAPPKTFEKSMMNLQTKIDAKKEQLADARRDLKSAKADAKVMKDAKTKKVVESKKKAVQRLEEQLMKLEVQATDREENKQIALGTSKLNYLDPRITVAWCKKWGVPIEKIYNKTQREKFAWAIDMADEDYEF
Method: (1) 2 μl of topoisomerase II (TopoGEN; 2 units/μl), 2 μl of 10-fold concentrated buffer [0.5 M Tris-HCl (pH 8.0), 1.2 M KCl, 0.1 M MgCl2, 2.5 mM adenosine triphosphate, 5 mM dithiothreitol], 2 μl of 0.1% bovine serum albumin (Takara Shuzo), 11 μl of distilled water and 2 μl of distilled water (control) or 2 μl of one of aqueous solutions of dipropionylcyclopentenone, diisobutyrylcyclopentenone, dibenzoylcyclopentenone, dihexanoylcyclopentenone, di-2-hexenoylcyclopentenone, dimethoxyacetylcyclopentenone, dimethylfumarylcyclopentenone or dimethylmaleylcyclopentenone at varying concentrations were mixed together. 1 μl of 0.25 μg/μl pBR322 DNA (Takara Shuzo) was added thereto. The resulting mixture was reacted at 37° C. After reacting for 30 minutes, 2 μl of an aqueous solution containing 1% sodium dodecyl sulfate, 50% glycerol and 0.02% Bromophenol Blue was added thereto to stop the reaction. […]
(2) The activity of inhibiting topoisomerase I of each of the cyclopentenone derivatives was determined as described in Example 3-(1) except that topoisomerase I (TopoGEN; 0.01 unit/μl) was used in place of topoisomerase II and a solution containing 100 mM Tris-HCl (pH 7.9), 10 mM EDTA, 1 mM spermidine and 50% glycerol was used as 10-fold concentrated buffer.

[1] = test system: λ-carrageenan pedal edema; assay: Carrageenan induced pedal edema; format: in vivo, Lewis rats; conditions: rat, 3 hours after carrageenan
Method: Lewis rats (male, 9 weeks old, weighing about 250 g) were purchased from Seac Yoshitomi.
Rats were fasted from 18 hours before the start of the experiments. Dipropionylcyclopentenone, dihexanoylcyclopentenone, di-2-hexenoylcyclopentenone, diisobutyrylcyclopentenone or dibenzoylcyclopentenone dissolved in olive oil (Nacalai Tesque) was orally administered to 4 rats per group at 1 or 10 mg/10 ml/kg.
100 μl of 1% λ-carrageenan (Wako Pure Chemical Industries) suspension in saline (Otsuka Pharmaceutical) was injected into the sole of right paw of a rat 0.5 hour after the administration of test substance to induce pedal edema. The volume of the right foot of the rat was measured using an instrument for measuring pedal volume (Ugo Basile) 3 hours after the injection with carrageenan. The measurements were expressed as the rate of increase calculated based on the volume of the right foot of each rat measured before the administration with carrageenan.
FIG. 5 illustrate the relationship between the amount of cyclopentenone derivative administered and the rate of increase in edema in foot. The horizontal axis represents the dose […] and the vertical axis represents the rate of increase (%).

[2] = Single oral dose toxicity; format: in vivo; conditions: mouse, oral, single dosage of 100 mg/kg
Method: No toxicity is observed when a physiologically effective amount of the cyclopentenone derivative or an optical isomer thereof, or a salt thereof obtained according to the present invention is administered.

HSP70 = conditions: cited from earlier work

Structure (SMILES) | Concentration at which change of DNA from superhelical type to relaxed type was partially or completely inhibited (topoisomerase I) [µM] | Suppression of edema in foot (FIG. 5) ([1]; 1 mg/kg oral) | Suppression of edema in foot (FIG. 5) ([1]; 10 mg/kg oral) | Death after single oral administration [2] | Concentration required for inducing HSP70 (HSP70)
O=C(OC1C=CC(=O)C1OC(=O)c1ccccc1)c1ccccc1 (centres unmarked) | ≥ 50 | Tendency of suppression | significant suppression | no death was observed | 
O=C1C=CCC1 [2-cyclopenten-1-one] |  |  |  |  | several hundred
